Data taken from US8440628B2, “Medical compositions containing ghrelin” (Daiichi Sankyo Company, Limited, priority 2002, dated 2013).

What was measured:
[1] = Stability of human ghrelin(1-7)amide in pH-adjusted purified water at 25°C (Example 8); assay type: physicochemical; settings: for Peak area ratio to total peak area: 25±2°C
Description: Human ghrelin(1-7)amide was dissolved in the purified water with about 0.12 μmol/mL (0.1 mg/mL). The pH of this solution was 5.0. This solution was divided into quarter, and one portion was kept alone and the pH values of the remaining three portions were adjusted to pH 1.8 (with 17 mM of hydrochloric acid), pH 4.1 (with 0.05 mM of hydrochloric acid) and pH 7.9 (with 0.20 mM of sodium hydroxide) respectively, by adding with hydrochloric acid or sodium hydroxide aqueous solution.
These four solutions were stored at 25±2° C. for 1 and 3 day, and after storage, the HPLC analyses of each solutions were conducted to calculate the peak area ratio of human ghrelin(1-7)amide, desacyl human ghrelin(1-7)amide and [3-dehydroalanine]-human ghrelin(1-7)amide to the total peak area.

[2] = Adsorption inhibiting effect of anti-adsorbents on human ghrelin in glass and polypropylene test tubes (Example 9); assay type: physicochemical; settings: for Adsorption inhibiting effect: added at 0.01% or 0.1% to human ghrelin 1.0 μg/mL solution; for Human ghrelin concentration of the solution (Initial Conc. = 100): human ghrelin 1.0 μg/mL in 5% mannitol-0.05M glycine hydrochloride buffer (pH 3.5)
Description: As the anti-adsorbent, the surfactant, that is, polyoxyethylene sorbitan monooleate (hereinafter, referred to as Tween® 80), and benzalkonium chloride were selected.
The anti-adsorbent was added to this solution with 0.01% or 0.1% concentration.
The human ghrelin concentrations of each solution were measured by HPLC method right after preparation, and these solutions were replaced in glass test tubes. After that, each solution were further replaced in new glass test tubes, and same operation was repeated for 5 and 10 times, then, the human ghrelin concentrations of each treated solution were measured by HPLC method. As a control, the solution not containing anti-adsorbent was examined.
Same procedure was repeated by using test tube made by polypropylene instead of glass test tube.

[3] = compared with human ghrelin; cited from earlier work
[4] = human ghrelin(1-7)amide 0.1 mg/mL in purified water adjusted to pH 1.8 with hydrochloric acid, 1 day after
[5] = human ghrelin(1-7)amide 0.1 mg/mL in purified water adjusted to pH 1.8 with hydrochloric acid, 3 days after
[6] = human ghrelin(1-7)amide 0.1 mg/mL in purified water adjusted to pH 1.8 with hydrochloric acid, before storage
[7] = human ghrelin(1-7)amide 0.1 mg/mL in purified water adjusted to pH 4.1 with hydrochloric acid, 1 day after
[8] = human ghrelin(1-7)amide 0.1 mg/mL in purified water adjusted to pH 4.1 with hydrochloric acid, 3 days after
[9] = human ghrelin(1-7)amide 0.1 mg/mL in purified water adjusted to pH 4.1 with hydrochloric acid, before storage
[10] = human ghrelin(1-7)amide 0.1 mg/mL in purified water adjusted to pH 7.9 with sodium hydroxide, 1 day after
[11] = human ghrelin(1-7)amide 0.1 mg/mL in purified water adjusted to pH 7.9 with sodium hydroxide, 3 days after
[12] = human ghrelin(1-7)amide 0.1 mg/mL in purified water adjusted to pH 7.9 with sodium hydroxide, before storage
[13] = human ghrelin(1-7)amide 0.1 mg/mL in purified water, pH 5.0 (not adjusted), 1 day after
[14] = human ghrelin(1-7)amide 0.1 mg/mL in purified water, pH 5.0 (not adjusted), 3 days after
[15] = human ghrelin(1-7)amide 0.1 mg/mL in purified water, pH 5.0 (not adjusted), before storage
[16] = anti-adsorbent 0.01%, Glass tube, replaced 5 times
[17] = anti-adsorbent 0.01%, Glass tube, replaced 10 times
[18] = anti-adsorbent 0.01%, Initial Conc.
[19] = anti-adsorbent 0.01%, Polypropylene tube, replaced 5 times
[20] = anti-adsorbent 0.01%, Polypropylene tube, replaced 10 times
[21] = anti-adsorbent 0.1%, Glass tube, replaced 5 times
[22] = anti-adsorbent 0.1%, Glass tube, replaced 10 times
[23] = anti-adsorbent 0.1%, Initial Conc.
[24] = anti-adsorbent 0.1%, Polypropylene tube, replaced 5 times
[25] = anti-adsorbent 0.1%, Polypropylene tube, replaced 10 times

[3-dehydroalanine]-human ghrelin(1-7)amide
Peak area ratio to total peak area [1, 4]: 0.07%
Peak area ratio to total peak area [1, 5]: 0.10%
Peak area ratio to total peak area [1, 6]: 0.02%
Peak area ratio to total peak area [1, 7]: 0.03%
Peak area ratio to total peak area [1, 8]: 0.01%
Peak area ratio to total peak area [1, 9]: 0.00%
Peak area ratio to total peak area [1, 10]: 0.23%
Peak area ratio to total peak area [1, 11]: 0.54%
Peak area ratio to total peak area [1, 12]: 0.03%
Peak area ratio to total peak area [1, 13]: 0.02%
Peak area ratio to total peak area [1, 14]: 0.06%
Peak area ratio to total peak area [1, 15]: 0.00%

desacyl human ghrelin(1-7)amide
Peak area ratio to total peak area [1, 4]: 3.75%
Peak area ratio to total peak area [1, 5]: 8.89%
Peak area ratio to total peak area [1, 6]: 0.98%
Peak area ratio to total peak area [1, 7]: 0.73%
Peak area ratio to total peak area [1, 8]: 0.77%
Peak area ratio to total peak area [1, 9]: 0.72%
Peak area ratio to total peak area [1, 10]: 3.21%
Peak area ratio to total peak area [1, 11]: 6.21%
Peak area ratio to total peak area [1, 12]: 1.12%
Peak area ratio to total peak area [1, 13]: 0.73%
Peak area ratio to total peak area [1, 14]: 0.79%
Peak area ratio to total peak area [1, 15]: 0.70%

benzalkonium chloride
Adsorption inhibiting effect [2]: high adsorption inhibiting effect against both glass tube and polypropylene tube
Human ghrelin concentration of the solution (Initial Conc. = 100) [2, 16]: 81
Human ghrelin concentration of the solution (Initial Conc. = 100) [2, 17]: 64
Human ghrelin concentration of the solution (Initial Conc. = 100) [2, 18]: 100
Human ghrelin concentration of the solution (Initial Conc. = 100) [2, 19]: 97
Human ghrelin concentration of the solution (Initial Conc. = 100) [2, 20]: 96
Human ghrelin concentration of the solution (Initial Conc. = 100) [2, 21]: 99
Human ghrelin concentration of the solution (Initial Conc. = 100) [2, 22]: 99
Human ghrelin concentration of the solution (Initial Conc. = 100) [2, 23]: 100
Human ghrelin concentration of the solution (Initial Conc. = 100) [2, 24]: 99
Human ghrelin concentration of the solution (Initial Conc. = 100) [2, 25]: 101

Human ghrelin(1-7)amide
Biological activity [3]: same biological activity as human ghrelin
Production of the degradation products ([1]; aqueous solution of pH 4.1 and 5.0, 25±2°C, up to 3 days): inhibited
Peak area ratio to total peak area [1, 4]: 95.40%
Peak area ratio to total peak area ([1]; human ghrelin(1-7)amide 0.1 mg/mL in purified water adjusted to pH 1.8 with hydrochloric acid, 1 day after, listed as human ghrelin(1-7)amide): less than 98%
Peak area ratio to total peak area [1, 5]: 90.11%
Peak area ratio to total peak area [1, 6]: 98.39%
Peak area ratio to total peak area [1, 7]: 98.68%
Peak area ratio to total peak area [1, 8]: 98.60%
Peak area ratio to total peak area [1, 9]: 98.76%
Peak area ratio to total peak area [1, 10]: 95.89%
Peak area ratio to total peak area ([1]; human ghrelin(1-7)amide 0.1 mg/mL in purified water adjusted to pH 7.9 with sodium hydroxide, 1 day after, listed as human ghrelin(1-7)amide): less than 98%
Peak area ratio to total peak area [1, 11]: 92.54%
Peak area ratio to total peak area [1, 12]: 98.22%
Peak area ratio to total peak area [1, 13]: 98.57%
Peak area ratio to total peak area [1, 14]: 98.51%
Peak area ratio to total peak area [1, 15]: 98.69%
pH of the solution ([1]; human ghrelin(1-7)amide dissolved in purified water, about 0.12 μmol/mL (0.1 mg/mL)): 5.0

polyoxyethylene sorbitan monooleate [Tween 80]
Adsorption inhibiting effect [2]: high adsorption inhibiting effect against polypropylene tube
Human ghrelin concentration of the solution (Initial Conc. = 100) [2, 16]: 17
Human ghrelin concentration of the solution (Initial Conc. = 100) [2, 17]: 0
Human ghrelin concentration of the solution (Initial Conc. = 100) [2, 18]: 100
Human ghrelin concentration of the solution (Initial Conc. = 100) [2, 19]: 90
Human ghrelin concentration of the solution (Initial Conc. = 100) [2, 20]: 90
Human ghrelin concentration of the solution (Initial Conc. = 100) [2, 21]: 20
Human ghrelin concentration of the solution (Initial Conc. = 100) [2, 22]: 5
Human ghrelin concentration of the solution (Initial Conc. = 100) [2, 23]: 100
Human ghrelin concentration of the solution (Initial Conc. = 100) [2, 24]: 93
Human ghrelin concentration of the solution (Initial Conc. = 100) [2, 25]: 91
